Data on 51 molecules can be found in patent publication US8242118B2, “Arylsulfonamide derivatives for use as CCR3 antagonists in the treatment of inflammatory and immunological disorders” (Axikin Pharmaceuticals Inc., priority 2001, dated 2012).

A word on the IC50: it is the midpoint of a concentration-inhibition curve. By melting point is commonly meant the temperature, or range, at which the solid turns liquid.

In one series the target is T1, Human CCR3 (Homo sapiens, UniProt P51677).
T1 construct: The cloned CCR3 cDNA was constructed with pcDNA3 vector and transfected into a IC562 cell line; expressed in transfected cells
T1 sequence (P51677 1-355): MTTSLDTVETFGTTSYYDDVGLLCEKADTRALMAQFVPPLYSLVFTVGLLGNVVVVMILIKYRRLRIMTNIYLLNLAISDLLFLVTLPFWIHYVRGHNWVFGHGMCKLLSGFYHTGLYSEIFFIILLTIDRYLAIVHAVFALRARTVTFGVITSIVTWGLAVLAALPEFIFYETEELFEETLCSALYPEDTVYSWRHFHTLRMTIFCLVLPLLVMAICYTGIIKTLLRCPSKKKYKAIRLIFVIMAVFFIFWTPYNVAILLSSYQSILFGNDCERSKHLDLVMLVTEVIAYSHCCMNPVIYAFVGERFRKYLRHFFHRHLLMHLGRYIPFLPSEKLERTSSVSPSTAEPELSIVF
The series can be described thus: Calcium mobilization assay, eotaxin-stimulated. In kind it is cell-based. To be noted: human CCR3-transformed K562 cells, 10 nM eotaxin; compounds of about 40 to 90% purity; read-out: Activity grade Ca2+ (IC50 class). An outline of the steps:
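K562 cells transfected with human CCR3, pretreated 20–24 h with 5 mM sodium butyrate, loaded with Fluo-3AM. Compound added 10 min before stimulation with 10 nM (final) eotaxin; cytoplasmic calcium read over 60 s by FDSS, IC50 from inhibition curve.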
For orientation: Calcium assays in cells follow changes in intracellular calcium, usually with a dye or a luminescent sensor.

For the molecule `O=[N+]([O-])c1ccc(Oc2cc(Cl)cc(Cl)c2)c(S(=O)(=O)N2CCN(CC3CCCO3)CC2)c1` (stereo not shown) [Example 4-27], the melting point is 182 to 183 °C. The IC50 at Human CCR3 was less than 1 µM.
Regarding `Cc1cc(C)cc(Oc2ccc(NC(=O)CC(C)C)cc2S(=O)(=O)N2CCNCC2)c1` [Example 7-4], the IC50 on Human CCR3 is greater than 10 µM.
As to `Cc1ccc(C(=O)Nc2ccc(Oc3cc(C)cc(C)c3)c(S(=O)(=O)N3CCNCC3)c2)cc1` [Example 7-6], at Human CCR3, the IC50 is greater than 10 µM.
The same measure, in the same setting: in the case of `Cc1cc(C)cc(Oc2ccc([N+](=O)[O-])cc2S(=O)(=O)N2CCN(CCC(F)(F)F)CC2)c1` [Example 4-33] it was less than 1 µM.
In the case of `CCCC(C)N1CCN(S(=O)(=O)c2cc([N+](=O)[O-])ccc2Oc2cc(C)cc(C)c2)CC1` (stereo not shown) [Example 4-17], the melting point was 93 to 95 °C. For the same molecule, at Human CCR3, the IC50 is less than 1 µM.
In the same order, the values of `Cc1cc(C)cc(Oc2ccc([N+](=O)[O-])cc2S(=O)(=O)N2CCC(N(C)C)CC2)c1.Cl` [Example 4-24] are 262 to 264 °C and less than 1 µM.
For the molecule `O=[N+]([O-])c1ccc(Nc2ccccc2Cl)c(S(=O)(=O)N2CCNCC2)c1` [Example 3-6], the IC50 on Human CCR3 lay in the range of 1 to 10 µM.
As to `COCCCN1CCN(S(=O)(=O)c2cc([N+](=O)[O-])ccc2Oc2cc(Cl)cc(Cl)c2)CC1` [Example 4-36], the melting point turned out to be 145 °C. Besides, on Human CCR3, the half-maximal inhibitory concentration (IC50) was less than 1 µM.
The molecule `Cl.N[C@@H]1CCN(S(=O)(=O)c2cc([N+](=O)[O-])ccc2Sc2cc(Cl)cc(Cl)c2)C1` [Example 2-11] came in with a melting point of 270 °C. For the same molecule, the IC50 at Human CCR3 is less than 1 µM.
For `O=[N+]([O-])c1ccc(Oc2cc(Cl)cc(Cl)c2)c(S(=O)(=O)N2CCN(CCC(F)(F)F)CC2)c1` [Example 4-34] the same measures were 166 to 167 °C and less than 1 µM.
The molecule `CN(C)CCN(C)S(=O)(=O)c1cc([N+](=O)[O-])ccc1Oc1cc(Cl)cc(Cl)c1` [Example 4-20] came in with a melting point of 105 to 107 °C. For the same molecule, the IC50 on Human CCR3 was less than 1 µM.
With `CCC(C)N1CCN(S(=O)(=O)c2cc([N+](=O)[O-])ccc2Oc2cc(C)cc(C)c2)CC1` (stereo not shown) [Example 4-16], the melting point is 134 to 135 °C. Moreover, the IC50 at Human CCR3 is less than 1 µM.
In turn, `CCC(CC)N1CCN(S(=O)(=O)c2cc([N+](=O)[O-])ccc2Oc2cc(C)cc(C)c2)CC1` [Example 4-18] yielded a melting point of 131 to 132 °C. Besides, the IC50 at Human CCR3 is 1 to 10 µM.
As for `Cc1cc(C)cc(Oc2ccc([N+](=O)[O-])cc2S(=O)(=O)N2CCN(C)CC2)c1` [Example 4-4], the melting point fell in the range of 131 to 132 °C. Further, on Human CCR3, the IC50 was less than 1 µM.
For `N#Cc1ccc(Oc2cc(Cl)cc(Cl)c2)c(S(=O)(=O)N2C[C@H]3C[C@@H]2CN3)c1` [Example 13-4] the same measures were 311 to 312 °C and less than 1 µM.
In turn, `Cc1cc(C)cc(Oc2ccc([N+](=O)[O-])cc2S(=O)(=O)N2CCN(C3CCCC3)CC2)c1` [Example 4-19] came in with a melting point of 169 to 171 °C. Also, the IC50 on Human CCR3 was less than 1 µM.
In the same order, the values of `CCN(CC)C1CCN(S(=O)(=O)c2cc([N+](=O)[O-])ccc2Oc2cc(Cl)cc(Cl)c2)C1` (stereo not shown) [Example 4-21] are 120 to 121 °C and less than 1 µM.
In the same order, the values of `O=[N+]([O-])c1ccc(Sc2cc(Cl)cc(Cl)c2)c(S(=O)(=O)N2CCC(N3CCCCC3)CC2)c1` [Example 2-3] are 191 to 192 °C and less than 1 µM.
For `CC(=O)Nc1ccc(Oc2cc(C)cc(C)c2)c(S(=O)(=O)N2CCNCC2)c1` [Example 7-2], on Human CCR3, the IC50 was greater than 10 µM.
For the molecule `O=[N+]([O-])c1ccc(Sc2cc(Cl)cc(Cl)c2)c(S(=O)(=O)NCCN2CCCCC2)c1` [Example 2-24], the half-inhibitory concentration (IC50) on Human CCR3 was less than 1 µM.
Molecule `O=[N+]([O-])c1ccc(Oc2cc(Cl)cc(Cl)c2)c(S(=O)(=O)N2CCC(N3CCCCC3)CC2)c1` [Example 4-29] displayed a melting point of 173 to 174 °C. Moreover, the IC50 at Human CCR3 was less than 1 µM.
Turning to `Cc1cc(C)cc(Oc2ccc(NC(=O)CCc3ccccc3)cc2S(=O)(=O)N2CCNCC2)c1` [Example 7-8], the IC50 at Human CCR3 was greater than 10 µM.
On to `O=[N+]([O-])c1ccc(Nc2cc(Cl)cc(Cl)c2)c(S(=O)(=O)N2CCNCC2)c1` [Example 3-2], for which, on Human CCR3, the IC50 is less than 1 µM.
In the case of `N#Cc1ccc(Oc2cc(Cl)cc(Cl)c2)c(S(=O)(=O)N2CCCC3CN(Cc4ccccc4)CC32)c1` (stereo not shown) [Example 13-2], the melting point lay within 90 to 93 °C. The IC50 on Human CCR3 was 1 to 10 µM.
On to `O=[N+]([O-])c1ccc(Oc2cc(Cl)cc(Cl)c2)c(S(=O)(=O)N2CCC(N3CCCC3)C2)c1` (stereo not shown) [Example 4-38], for which, at Human CCR3, the IC50 is less than 1 µM.
Turning to `Cc1cc(C)cc(Oc2ccc(S(=O)(=O)N(C)C)cc2S(=O)(=O)N2CCNCC2)c1.Cl` [Example 10-2], the melting point is 242 to 247 °C. On Human CCR3, the IC50 was less than 1 µM.
`Cc1cc(C)cc(Oc2ccc([N+](=O)[O-])cc2S(=O)(=O)N2CC[C@@H](N(C)C)C2)c1` [Example 4-13] came in with a melting point of 115 to 116 °C. In addition, the IC50 at Human CCR3 is less than 1 µM.
As to `Cc1cc(C)cc(Oc2ccc([N+](=O)[O-])cc2S(=O)(=O)NCCN2CCCCC2)c1` [Example 4-2], at Human CCR3, the IC50 was less than 1 µM.
In the case of `Cc1cc(C)cc(Oc2ccc([N+](=O)[O-])cc2S(=O)(=O)N(C)CCN(C)C)c1` [Example 4-14], the melting point lay in the range of 75 to 77 °C. Besides, on Human CCR3, the IC50 is less than 1 µM.
`CCN1CCC(N(CC)S(=O)(=O)c2cc([N+](=O)[O-])ccc2Oc2cc(C)cc(C)c2)C1` (stereo not shown) [Example 4-12] gave a melting point of 86 to 88 °C. Also, at Human CCR3, the IC50 is less than 1 µM.
Consider `Cc1ccccc1Nc1ccc([N+](=O)[O-])cc1S(=O)(=O)N1CCNCC1` [Example 3-3], for which the IC50 at Human CCR3 is 1 to 10 µM.
As to `Cc1cc(C)cc(Oc2ccc(NC(=O)C(C)(C)C)cc2S(=O)(=O)N2CCNCC2)c1` [Example 7-3], the IC50 on Human CCR3 is greater than 10 µM.
Regarding `Cc1cc(C)cc(Oc2ccc([N+](=O)[O-])cc2S(=O)(=O)N2CCN(c3ccccc3)CC2)c1` [Example 4-7], the melting point lay within 168 to 169 °C. In addition, the IC50 on Human CCR3 is greater than 10 µM.
In the same order, the values of `Cc1cc(C)cc(Oc2ccc(I)cc2S(=O)(=O)N2CCNCC2)c1.Cl` [Example 5-6] are 241 to 243 °C and less than 1 µM.
`N[C@H]1CCN(S(=O)(=O)c2cc([N+](=O)[O-])ccc2Sc2cc(Cl)cc(Cl)c2)C1` [Example 2-12] showed a melting point of 263 °C. For the same molecule, the IC50 at Human CCR3 is less than 1 µM.
In the case of `Cc1cc(C)cc(Oc2ccc(NC(=O)c3cccc4ccccc34)cc2S(=O)(=O)N2CCNCC2)c1` [Example 7-7], the IC50 on Human CCR3 is 1 to 10 µM.
`Cc1cc(C)cc(Oc2ccc([N+](=O)[O-])cc2S(=O)(=O)N2CCN(C3CCCCC3)CC2)c1` [Example 4-6] yielded a melting point of 190 to 192 °C. The IC50 at Human CCR3 was less than 1 µM.
Turning to `Cc1cc(C)cc(Oc2ccc(NC(=O)c3ccccc3)cc2S(=O)(=O)N2CCNCC2)c1` [Example 7-5], the IC50 at Human CCR3 was greater than 10 µM.
With `Cc1ccc(Nc2ccc([N+](=O)[O-])cc2S(=O)(=O)N2CCNCC2)cc1` [Example 3-5], the half-inhibitory concentration (IC50) at Human CCR3 fell in the range of 1 to 10 µM.
As to `Cc1cc(C)cc(Oc2ccc(N)cc2S(=O)(=O)N2CCNCC2)c1.O=C(O)C(F)(F)F` [Example 5-3], the melting point lay in the range of 133 to 135 °C. In addition, the IC50 on Human CCR3 is greater than 10 µM.
Molecule `Cc1cc(C)cc(Oc2cc(C)c(N)cc2S(=O)(=O)N2CCNCC2)c1.Cl.Cl` [Example 5-7] displayed a melting point of 183 °C. Besides, at Human CCR3, the IC50 was greater than 10 µM.
In the same order, the values of `CCN1CCN(S(=O)(=O)c2cc(Cl)ccc2Oc2cc(C)cc(C)c2)CC1` [Example 5-4] are 120 to 122 °C and less than 1 µM.
In the same order, the values of `Cc1cc(C)cc(Oc2ccc([N+](=O)[O-])cc2S(=O)(=O)N2CCN(C(C)C)CC2)c1` [Example 4-15] are 129 to 131 °C and less than 1 µM.
As for `Cc1cc(C)cc(Oc2ccc([N+](=O)[O-])cc2S(=O)(=O)NCCN2CCOCC2)c1` [Example 4-3], the IC50 on Human CCR3 was less than 1 µM.
`CCN1CCN(S(=O)(=O)c2cc(I)ccc2Oc2cc(C)cc(C)c2)CC1` [Example 5-5]: the melting point lay in the range of 133 to 134 °C. Moreover, the IC50 at Human CCR3 was less than 1 µM.
Take `N#Cc1ccc(Oc2cc(Cl)cc(Cl)c2)c(S(=O)(=O)N2C[C@@H]3CCCN[C@@H]3C2)c1` [Example 13-5]: the melting point lay within 163 to 165 °C. Further, the IC50 at Human CCR3 was less than 1 µM.
`CN1CCC(N(C)S(=O)(=O)c2cc([N+](=O)[O-])ccc2Oc2cc(Cl)cc(Cl)c2)C1` (stereo not shown) [Example 4-23]: at Human CCR3, the concentration for half-maximal inhibition (IC50) is less than 1 µM.
The molecule `COCCCN1CCN(S(=O)(=O)c2cc(C#N)ccc2Oc2cc(Cl)cc(Cl)c2)CC1` [Example 13-7] yielded a melting point of 240 °C. Further, on Human CCR3, the IC50 is less than 1 µM.
Take `Cc1cc(C)cc(Oc2ccc(NC(=O)c3cccs3)cc2S(=O)(=O)N2CCNCC2)c1` [Example 7-9]: on Human CCR3, the 50% inhibitory concentration (IC50) is greater than 10 µM.
On the same count and under the same terms, as for `Cc1cccc(Nc2ccc([N+](=O)[O-])cc2S(=O)(=O)N2CCNCC2)c1` [Example 3-4], the figure is 1 to 10 µM.
Same read-out and setting: as for `CC1CCCCN1CCCNS(=O)(=O)c1cc([N+](=O)[O-])ccc1Sc1cc(Cl)cc(Cl)c1` (stereo not shown) [Example 2-13], the figure is less than 1 µM.
